Values of other authors, collected in PMC10973013, “Translational Potential of a Contrast Agent for FGS Applications in pNETs” (Molecular Imaging and Biology, 2024).

Tested on: lesions in ovarian cancer patients
Conditions: cytoreductive surgery, randomized phase 3
Excerpt: The critical need for accurate tumor detection during oncologic surgery has led to the development of fluorescent contrast agents that target cancerous tissues. This technique, known as fluorescence-guided surgery (FGS), typically involves systemic administration of a fluorescent compound that contains a tumor-targeting moiety and is imaged in the near-infrared spectral range in order to maximize image contrast and diagnostic accuracy. In 2021, the folic acid analog OTL-38 (CYTALUX®) became the first clinically approved FGS agent to target tumors via an active, receptor-mediated process. ...

CC1(C)C(/C=C/C2=C(Oc3ccc(C[C@H](NC(=O)c4ccc(NCc5cnc6nc(N)[nH]c(=O)c6n5)cc4)C(=O)[O-])cc3)C(=C/C=C3\N(CCCCS(=O)(=O)[O-])c4ccc(S(=O)(=O)[O-])cc4C3(C)C)/CCC2)=[N+](CCCCS(=O)(=O)[O-])c2ccc(S(=O)(=O)[O-])cc21.[H+].[H+].[H+].[H+] [OTL-38]
identification of lesions with FGS versus standard-of-care methods: more effectively identified with FGS than with standard-of-care methods
